Experimental data from patent US20110045101A1, “FUNGICIDAL SUBSTITUTED AZOLES” (E.I. Du Pont De Nemours and Company, priority 2009, published 2011).
Marks after values point to notes of the source that are not given here.

Key:
Type in all cases: in vivo
Conditions in all cases: 100 = 100% disease control
[1] = tested on: Puccinia recondita f. sp. tritici; assay: Test I: wheat leaf rust on wheat seedlings, sprayed the day before inoculation, visual disease rating
How it was run: (§1)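 Acetone solution (3% of final volume) of each compound is suspended in 50/50 acetone/water with 250 ppm Trem® 014. Plants are sprayed to run-off at 200 ppm, equivalent to 500 g/ha, or at 40 ppm for starred values.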

Botrytis cinerea = assay: Test C: tomato Botrytis on tomato seedlings, sprayed the day before inoculation, visual disease rating
How it was run: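 Disease ratings refer to tomato seedlings treated by run-off spraying with compound suspensions, mostly 200 ppm (500 g/ha equivalent) and in marked cases 40 ppm. Carrier: acetone/purified water 50/50 with 250 ppm polyhydric alcohol ester surfactant, after predissolving in acetone.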

Septoria nodorum = assay: Test F: wheat glume blotch on wheat seedlings, sprayed the day before inoculation, visual disease rating
How it was run: as §1

[2] = tested on: Puccinia recondita f. sp. tritici; assay: Test H: wheat leaf rust, test suspension sprayed after inoculation of wheat seedlings, visual disease rating
How it was run: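 Wheat seedlings inoculated with P. recondita spores, held 24 h saturated at 20 °C, then 2 days in growth chamber at 20 °C; compound suspension (acetone/water with Trem 014) sprayed to run-off afterwards. Rated visually; 200 ppm (≈500 g/ha) unless marked *, which denotes 40 ppm.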

Septoria tritici = assay: Test G: wheat leaf blotch on wheat seedlings, sprayed the day before inoculation, visual disease rating
How it was run: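 Compounds dissolved in acetone (3% of final volume), then suspended in 50/50 acetone/water with 250 ppm Trem® 014 and sprayed to run-off on seedlings at 200 ppm (≈500 g/ha) or 40 ppm where marked. Inoculation with spores followed next day; visual rating after 48 h saturated at 24° C plus 19 days at 20° C.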

[3] = tested on: Erysiphe graminis f. sp. tritici; assay: Test J: wheat powdery mildew on wheat seedlings, sprayed the day before inoculation, visual disease rating
How it was run: as §1

Alternaria solani = assay: Test D: tomato early blight, sprayed the day before inoculation, visual disease rating
How it was run: as §1

[4] = 200 ppm, 0 = no control relative to controls
[5] = 40 ppm (marked *), 0 = no control

| Compound | Test I disease control rating [1, 4] [%] | Test C disease control rating (Botrytis cinerea; [4]) [%] | Test F disease control rating (Septoria nodorum; [4]) [%] | Test H disease control rating [2, 4] [%] | Test G disease control rating (Septoria tritici; [4]) [%] | Test J disease control rating [3, 4] [%] | Test D disease control rating (Alternaria solani; [4]) [%] | other results |
| --- | --- | --- | --- | --- | --- | --- | --- | --- |
| CCc1cccc(-n2c(Br)nc(Cl)c2-c2c(F)ccc(OC)c2F)c1 [compound 398] | 79 | 100 | 79 | 0 | 96 | 100 | 80 |  |
| Fc1cc(F)c(-c2c(Cl)nc(Br)n2-c2ccc(OC(F)(F)F)cc2)c(F)c1 [compound 606] | 28 | 99 | 0 | 0 | 99 | 100 | 100 |  |
| COc1cc(F)c(-c2c(Cl)nc(Br)n2-c2ccc(OC)c(Cl)c2)c(F)c1 [compound 645] |  |  |  |  |  |  |  | Test I disease control rating ([1]; 40 ppm (marked *)): 83* %; Test C disease control rating (Botrytis cinerea; 40 ppm (marked *)): 99* %; Test F disease control rating (Septoria nodorum; 40 ppm (marked *)): 0* %; Test H disease control rating ([2]; 40 ppm (marked *)): 0* %; Test G disease control rating (Septoria tritici; 40 ppm (marked *)): 95* %; Test J disease control rating ([3]; 40 ppm (marked *)): 35* %; Test D disease control rating (Alternaria solani; 40 ppm (marked *)): 17* % |
| Fc1cc(-n2cnc(Br)c2-c2c(F)ccc(F)c2Cl)ccc1Cl [compound 409] | 96 | 100 | 0 | 0 | 100 | 98 | 9 |  |
| COc1cc(F)c(-c2c(Cl)nc(Cl)n2Cc2ccc(Cl)nc2)c(F)c1Cl [compound 668] | 85 | 100 | 91 | 0 | 99 | 96 | 99 |  |
| COc1cc(F)c(-c2c(Cl)nc(Cl)n2-c2cccnc2Cl)c(F)c1 [compound 513] | 100 | 99 | 100 | 100 | 100 | 100 | 100 |  |
| COc1ccc(F)c(-c2c(Cl)nc(Cl)n2-c2ccc(Cl)c(F)c2)c1F [compound 392] | 99 | 100 | 100 | 60 | 97 | 100 | 100 |  |
| Cc1nc(Br)n(-c2ccc(F)cc2Cl)c1-c1ccc(Cl)cc1 [compound 339] | 96 | 100 | 78 | 0 | 95 | 96 | 99 |  |
| COc1cc(F)c(-c2c(Cl)nc(Cl)n2-c2ccc(OC)nc2)c(F)c1 [compound 516] | 100 | 97 | 100 | 100 | 100 | 100 | 100 |  |
| COc1ccc(-c2c(Cl)ncn2-c2ccc(F)cc2)c(Cl)c1 [compound 726] | 80 | 99 | 0 | 0 | 99 | 89 | 99 |  |
| COc1cc(F)c(-n2c(Cl)nc(CCl)c2-c2ccc(C)cc2)c(F)c1 [compound 581] |  |  |  |  |  |  |  | Test I disease control rating ([1]; 40 ppm (marked *)): 98* %; Test C disease control rating (Botrytis cinerea; 40 ppm (marked *)): 99* %; Test F disease control rating (Septoria nodorum; 40 ppm (marked *)): 0* %; Test H disease control rating ([2]; 40 ppm (marked *)): 84* %; Test G disease control rating (Septoria tritici; 40 ppm (marked *)): 96* %; Test J disease control rating ([3]; 40 ppm (marked *)): 21* %; Test D disease control rating (Alternaria solani; 40 ppm (marked *)): 33* % |
| COc1ccc(F)c(-c2c(Cl)nc(C)n2-c2ccc(Cl)nc2)c1F [compound 738] | 100 | 100 | 100 | 96 | 100 | 100 | 100 |  |
| Fc1cccc(F)c1-c1c(Cl)nc(Cl)n1-c1ccccc1 [compound 591] | 98 | 100 | 0 | 96 | 97 | 98 | 100 |  |
| Cc1nc(Cl)c(-c2ccc(Cl)c(F)c2)n1-c1ccc(F)cc1Cl [compound 421] | 100 | 100 | 0 | 0 | 100 | 100 | 98 |  |
| Cc1nc(C)n(-c2ccc(Cl)cc2)c1-c1c(F)ccc(F)c1F [compound 416] |  |  |  |  |  |  |  | Test I disease control rating [1, 5]: 26* %; Test C disease control rating (Botrytis cinerea; [5]): 100* %; Test F disease control rating (Septoria nodorum; [5]): 0* %; Test H disease control rating [2, 5]: 0* %; Test G disease control rating (Septoria tritici; [5]): 97* %; Test J disease control rating [3, 5]: 99* %; Test D disease control rating (Alternaria solani; [5]): 100* % |
| O=C(O)Cc1nc(Br)c(-c2c(F)cccc2F)n1-c1ccc(Cl)cc1 [Compound 570, 4-bromo-1-(4-chlorophenyl)-5-(2,6-difluorophenyl)-1H-imidazole-2-acetic acid] |  |  |  |  |  |  |  | pest or weed control at 200 ppm ([1]; Puccinia recondita, 168 h, 200 ppm, 0 = no control relative to controls): 13%; pest or weed control at 200 ppm (Botrytis cinerea; Botrytis cinerea, 120 h, 200 ppm, 0 = no control relative to controls): 0%; pest or weed control at 200 ppm (Septoria nodorum; Parastagonospora nodorum, 264 h, 200 ppm, 0 = no control relative to controls): 0%; pest or weed control at 200 ppm ([2]; Puccinia recondita, 96 h, 200 ppm, 0 = no control relative to controls): 0%; pest or weed control at 200 ppm (Septoria tritici; Zymoseptoria tritici, 504 h, 200 ppm, 0 = no control relative to controls): 97%; pest or weed control at 200 ppm ([3]; Blumeria graminis, 168 h, 200 ppm, 0 = no control relative to controls): 69%; pest or weed control at 200 ppm (Alternaria solani; Alternaria solani, 168 h, 200 ppm, 0 = no control relative to controls): 0% |
| COc1ccc(-n2c(Cl)nc(Cl)c2-c2c(F)cccc2F)cn1 [compound 621] | 100 | 100 | 99 | 100 | 98 | 100 | 100 |  |
| Cc1nc(Cl)n(-c2ccc(F)cc2)c1-c1c(F)ccc(F)c1F [compound 413] |  |  |  |  |  |  |  | Test I disease control rating [1, 5]: 0* %; Test C disease control rating (Botrytis cinerea; [5]): 100* %; Test F disease control rating (Septoria nodorum; [5]): 0* %; Test H disease control rating [2, 5]: 9* %; Test G disease control rating (Septoria tritici; [5]): 14* %; Test J disease control rating [3, 5]: 0* %; Test D disease control rating (Alternaria solani; [5]): 99* % |
